Patent US20230081426A1, “COMPOUNDS AND METHODS FOR KRAS MODULATION AND INDICATIONS THEREFOR” (Plexxikon Inc., priority 2020, published 2023)

Columns and labels:
[1] = molecular target: T1, G12D-mutant human KRAS (amino acid residues 1-188) (Homo sapiens, UniProt P01116, G12D); assay: KRAS Binding Disruption Assay (AlphaScreen; biotinylated KRpep-2d analogue or RAF1-RBD), G12D; conditions: KRAS G12D; geometric mean; read-out: KRAS GMean IC50 (uM) MUTATION: G12D
T1 construct: G12D or G12C-mutant human KRAS (amino acid residues 1-188) with FLAG tag; made in house; host or cells: E. coli
T1 sequence (P01116 1-188 isoform P01116-2 G12D): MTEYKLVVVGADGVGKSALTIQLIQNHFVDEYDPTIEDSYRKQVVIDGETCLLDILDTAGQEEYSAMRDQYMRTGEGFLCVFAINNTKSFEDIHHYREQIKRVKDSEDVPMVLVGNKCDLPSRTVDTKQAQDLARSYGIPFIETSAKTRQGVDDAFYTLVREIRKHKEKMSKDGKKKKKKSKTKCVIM
In short: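 Mutant KRAS (5-20 nM) incubated 1 h at 25° C with test compound and 5-20 nM biotinylated KRpep-2d analogue or RAF1-RBD in 20 mM HEPES pH 7.5, 100 mM NaCl, 5 mM MgCl2, 0.01% Tween-20, 0.01% BSA.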

[2] = molecular target: T2, G12C-mutant human KRAS (amino acid residues 1-188) (Homo sapiens, UniProt P01116, G12C); assay: KRAS Binding Disruption Assay (AlphaScreen; biotinylated KRpep-2d analogue or RAF1-RBD), G12C; conditions: geometric mean, read-out: KRAS GMean IC50 (uM) MUTATION: G12C
T2 construct: G12D or G12C-mutant human KRAS (amino acid residues 1-188) with FLAG tag; made in house; host or cells: E. coli
T2 sequence (P01116 1-188 isoform P01116-2 G12C): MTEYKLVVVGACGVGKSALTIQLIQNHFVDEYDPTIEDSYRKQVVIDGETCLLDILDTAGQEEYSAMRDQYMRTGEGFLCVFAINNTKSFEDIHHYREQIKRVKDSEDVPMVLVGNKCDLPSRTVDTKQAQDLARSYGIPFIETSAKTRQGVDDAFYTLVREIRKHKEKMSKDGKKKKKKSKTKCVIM
Procedure: Compound binding disrupts the interaction of KRpep-2d or RAF1-RBD with KRAS, leading to a decrease in Alpha signal.
All assay components were prepared in 20 mM HEPES (pH 7.5), 100 mM NaCl, 5 mM MgCl2, 0.01% Tween-20, and 0.01% BSA. Biotinylated analogues of KRpep-2d were custom synthesized. The binding disruption assays were performed using 5-20 nM of mutant KRAS and 5-20 nM of either biotinylated KRpep-2d analogue or RAF1-RBD. 19 μL of KRAS protein and 4 μL of biotinylated KRpep-2d or RAF1-RBD were added to the wells of a 384-well plate containing 1 μL of various concentrations of test compound or DMSO vehicle. 16 wells containing KRAS, biotinylated KRpep-2d or RAF1-RBD, and 5% DMSO served as high controls. 16 wells containing KRAS only and 5% DMSO served as low controls. Binding reactions were incubated for 1 hour at 25° C., then Anti-Flag Acceptor and Streptavidin Donor Alpha beads were added at a final concentration of 10 μg/mL for an additional hour at room temperature. Alpha signal was read out on a Perkin Elmer Envision HTS instrument. The percentage inhibition at individual compound concentrations relative to high and low controls was calculated. The data were analyzed by using nonlinear regression to generate IC50 values.

| Compound | IC50 [1] [µM] | IC50 [2] [µM] |
| --- | --- | --- |
| Oc1cc(-c2ccc3c(N4C[C@H]5CC[C@@H](C4)N5)nc(OCCn4cncn4)nc3c2F)c2ccccc2c1 [P-0689, 4-(2-(2-(1H-1,2,4-triazol-1-yl)ethoxy)-4-((1R,5S)-3,8-diazabicyclo[3.2.1]octan-3-yl)-8-fluoroquinazolin-7-yl)naphthalen-2-] | 0.0001 to 10 | 10 to 100 |
| CN1CCC[C@H]1COc1nc(N2C[C@H]3CC[C@@H](C2)N3)c2ccc(-c3c[nH]c4cccc(Cl)c34)c(F)c2n1 [P-0654, 4-((1R,5S)-3,8-diazabicyclo[3.2.1]octan-3-yl)-7-(4-chloro-1H-indol-3-yl)-8-fluoro-2-(((S)-1-methylpyrrolidin-2-yl)methoxy)quinazoline] | 0.0001 to 10 | 10 to 100 |
| Oc1cc(-c2ccc3c(N4C[C@H]5CC[C@@H](C4)N5)nc(OCCN4CCC4)nc3c2F)c2ccccc2c1 [P-0713, 4-(2-(2-(azetidin-1-yl)ethoxy)-4-((1R,5S)-3,8-diazabicyclo[3.2.1]octan-3-yl)-8-fluoroquinazolin-7-yl)naphthalen-2-ol] | 0.0001 to 10 | 10 to 100 |
| CN1C[C@H](O)C[C@H]1COc1nc(N2C[C@H]3CC[C@@H](C2)N3)c2ccc(-c3cc(O)cc4ccccc34)c(F)c2n1 [P-0659, (3R,5S)-5-(((4-((1R,5S)-3,8-diazabicyclo[3.2.1]octan-3-yl)-8-fluoro-7-(3-hydroxynaphthalen-1-yl)quinazolin-2-yl)oxy)methyl)-1-methylpyrrolidin-3-ol] | 0.0001 to 10 | 0.0001 to 10 |
| C=Cc1cc2c(N3C[C@H]4CC[C@@H](C3)N4)nc(OC[C@@H]3CCCN3C)nc2c(F)c1-c1cc(O)cc2ccccc12 [P-0036, 4-[4-(3,8-Diazabicyclo[3.2.1]octan-3-yl)-8-fluoro-2-[[(2S)-1-methylpyrrolidin-2-yl]methoxy]-6-vinyl-quinazolin-7-yl]naphthalen-2-ol] | 0.0001 to 10 | 0.0001 to 10 |
| O=C(OCc1ccccc1)N1CCC[C@H]1COc1nc(N2C[C@H]3CC[C@@H](C2)N3)c2ccc(-c3cc(O)cc4ccccc34)c(F)c2n1 [P-0677, benzyl (S)-2-(((4-((1R,5S)-3,8-diazabicyclo[3.2.1]octan-3-yl)-8-fluoro-7-(3-hydroxynaphthalen-1-yl)quinazolin-2-yl)oxy)methyl)pyrrolidine-1-carboxylate] | 0.0001 to 10 | 10 to 100 |
| CCc1cccc2[nH]cc(-c3ncc4c(N5C[C@H]6CC[C@@H](C5)N6)nc(OC[C@@]56CCCN5C[C@H](F)C6)nc4c3F)c12 [P-0505, 4-((1R,5S)-3,8-diazabicyclo[3.2.1]octan-3-yl)-7-(4-ethyl-1H-indol-3-yl)-8-fluoro-2-(((2R,7aS)-2-fluorotetrahydro-1H-pyrrolizin-7a(5H)-yl)methoxy)pyrido[4,3-d]pyrimidine] | 0.0001 to 10 | 0.0001 to 10 |
| NC(=O)N1[C@@H]2CC[C@H]1CN(c1nc(OCC34CCCN3CCC4)nc3c(F)c(-c4cc(O)cc5ccccc45)ccc13)C2 [P-0660, (1R,5S)-3-(8-fluoro-7-(3-hydroxynaphthalen-1-yl)-2-((tetrahydro-1H-pyrrolizin-7a(5H)-yl)methoxy)quinazolin-4-yl)-3,8-diazabicyclo[3.2.1]octane-8-carboxamide] | 0.0001 to 10 | 0.0001 to 10 |
| COc1cccc2ncnc(-c3ccc4c(N5C[C@H]6CC[C@@H](C5)N6)nc(OC[C@@H]5CCCN5C)nc4c3F)c12 [P-0727, 4′-((1R,5S)-3,8-diazabicyclo[3.2.1]octan-3-yl)-8′-fluoro-5-methoxy-2′-(((S)-1-methylpyrrolidin-2-yl)methoxy)-4,7′-biquinazoline] | 100 to 1000 | 100 to 1000 |
| Oc1cc(-c2ccc3c(N4C[C@H]5CC[C@@H](C4)N5)nc(N4CC(N5CC(F)C5)C4)nc3c2F)c2ccccc2c1 [P-0638, 4-(4-((1R,5S)-3,8-diazabicyclo[3.2.1]octan-3-yl)-8-fluoro-2-(3-fluoro-[1,3′-biazetidin]-1′-yl)quinazolin-7-yl)naphthalen-2-ol] | 0.0001 to 10 | 10 to 100 |
| Oc1cc(-c2ccc3c(N4C[C@H]5CC[C@@H](C4)N5)nc(NCC4(O)CCC4)nc3c2F)c2ccccc2c1 [P-0681, 4-(4-((1R,5S)-3,8-diazabicyclo[3.2.1]octan-3-yl)-8-fluoro-2-(((1-hydroxycyclobutyl)methyl)amino)quin-azolin-7-yl)naphthalen-2-ol] | 0.0001 to 10 | 100 to 1000 |
| CN(C)CCNc1nc(N2C[C@H]3CC[C@@H](C2)N3)c2ccc(-c3cc(O)cc4ccccc34)cc2n1 [P-0022, 4-(4-((1R,5S)-3,8-diazabicyclo[3.2.1]octan-3-yl)-2-((2-(dimethylamino)ethyl)amino)quinaz-olin-7-yl)naphthalen-2-ol] | 0.0001 to 10 | 10 to 100 |
| COC1CN(c2nc(N3C[C@H]4CC[C@@H](C3)N4)c3ccc(-c4cc(O)cc5ccccc45)c(F)c3n2)C1 [P-0658, 4-(4-((1R,5S)-3,8-diazabicyclo[3.2.1]octan-3-yl)-8-fluoro-2-(3-methoxyazetidin-1-yl)quinazolin-7-yl)naphthalen-2-ol] | 0.0001 to 10 | 100 to 1000 |

More lines, now with the values ahead:

| IC50 [1] [µM] | IC50 [2] [µM] | Compound |
| --- | --- | --- |
| 0.0001 to 10 | 10 to 100 | CN1CCC[C@H]1COc1nc(N2C[C@H]3CC[C@@H](C2)N3)c2ccc(-c3cccc4cccc(Cl)c34)c(F)c2n1 [P-0782, 4-((1R,5S)-3,8-diazabicyclo[3.2.1]octan-3-yl)-7-(8-chloronaphthalen-1-yl)-8-fluoro-2-(((S)-1-methylpyrrolidin-2-yl)methoxy)quinazoline] |
| 10 to 100 | 100 to 1000 | COc1cccc2c(-c3c(F)cc4c(N5C[C@H]6CC[C@@H](C5)N6)nc(OC[C@@H]5CCCN5C)nc4c3F)c[nH]c12 [P-0799, 4-((1R,5S)-3,8-diazabicyclo[3.2.1]octan-3-yl)-6,8-difluoro-7-(7-methoxy-1H-indol-3-yl)-2-(((S)-1-methylpyrrolidin-2-yl)methoxy)quinazoline] |
| 0.0001 to 10 | 0.0001 to 10 | O=C(CCn1ccnc1)N1[C@@H]2CC[C@H]1CN(c1nc(OCC34CCCN3CCC4)nc3c(F)c(-c4cc(O)cc5ccccc45)ccc13)C2 [P-0807, 1-((1R,5S)-3-(8-fluoro-7-(3-hydroxynaphthalen-1-yl)-2-((tetrahydro-1H-pyrrolizin-7a(5H)-yl)methoxy)quinazolin-4-yl)-3,8-diazabicyclo[3.2.1]octan-8-yl)-3-(1H-imidazol-1-yl)propan-1-one] |
| 0.0001 to 10 | 100 to 1000 | OCCCc1nc(N2C[C@H]3CC[C@@H](C2)N3)c2ccc(-c3cc(O)cc4ccccc34)c(F)c2n1 [P-0811, 4-(4-((1R,5S)-3,8-diazabicyclo[3.2.1]octan-3-yl)-8-fluoro-2-(3-hydroxypropyl)quinazolin-7-yl)naphthalen-2-ol] |
| 0.0001 to 10 | 10 to 100 | CN1C(=O)CCC1COc1nc(N2C[C@H]3CC[C@@H](C2)N3)c2ccc(-c3cc(O)cc4ccccc34)c(F)c2n1 (stereo partly drawn) [P-0742, 5-(((4-((1R,5S)-3,8-diazabicyclo[3.2.1]octan-3-yl)-8-fluoro-7-(3-hydroxynaphthalen-1-yl)quinazolin-2-yl)oxy)methyl)-1-methylpyrrolidin-2-one] |
| 0.0001 to 10 | 10 to 100 | Oc1cc(-c2ccc3c(N4C[C@H]5CC[C@@H](C4)N5)nc(OCC4CC(F)(F)C4(F)F)nc3c2F)c2ccccc2c1 (stereo partly drawn) [P-0740, 4-(4-((1R,5S)-3,8-diazabicyclo[3.2.1]octan-3-yl)-8-fluoro-2-((2,2,3,3-tetrafluorocyclobutyl)methoxy)quinaz-olin-7-yl)naphthalen-2-ol] |
| 0.0001 to 10 | 100 to 1000 | CN1CCC[C@H]1COc1nc(N2C[C@H]3CC[C@@H](C2)N3)c2ccc(-c3cccc4ccccc34)c(F)c2n1 [P-0783, 4-((1R,5S)-3,8-diazabicyclo[3.2.1]octan-3-yl)-8-fluoro-2-(((S)-1-methylpyrrolidin-2-yl)methoxy)-7-(naphthalen-1-yl)quinazoline] |
| 0.0001 to 10 | 10 to 100 | CS(=O)(=O)NCCc1nc(N2C[C@H]3CC[C@@H](C2)N3)c2ccc(-c3cc(O)cc4ccccc34)c(F)c2n1 [P-0771, N-(2-(4-((1R,5S)-3,8-diazabicyclo[3.2.1]octan-3-yl)-8-fluoro-7-(3-hydroxynaphthalen-1-yl)quinazolin-2-yl)ethyl)methanesulfonamide] |
| 0.0001 to 10 | 100 to 1000 | CN1CCC[C@H]1COc1nc(N2C[C@H]3CC[C@@H](C2)N3)c2cc(F)c(-c3c[nH]c4ccc(Cl)nc34)c(F)c2n1 [P-0756, 4-((1R,5S)-3,8-diazabicyclo[3.2.1]octan-3-yl)-7-(5-chloro-1H-pyrrolo[3,2-b]pyridin-3-yl)-6,8-difluoro-2-(((S)-1-methylpyrrolidin-2-yl)methoxy)quinazoline] |
